Source: patent publication US9428508B2, “2,4-diamino-6,7-dihydro-5H-pyrrolo[2,3]pyrimidine derivatives as FAK/Pyk2 inhibitors” (Centaurus BioPharma Co., Ltd., priority 2011, dated 2016)

Assays:
[1] = biological target: PYK2 (Homo sapiens (Human), UniProt Q14289); assay: Biochemical assay for PYK2 activity (LANCE TR-FRET, ULight-poly Glu,Ala,Tyr substrate); settings: GST-tagged PYK2, 40 min reaction
Experimental: (§1) Biochemical Assay for FAK/Pyk2 Activity
(§2) GST-tagged FAK was purchased from Invitrogen (PV3832). GST-tagged PYK2 was purchased from Invitrogen (PV4567). The activity of FAK/PYK2 was measured by monitoring the phosphorylation of a fluorophore labeled ULight-poly Glu, Ala, Tyr (1:1:1) peptide substrate from Perkin Elmer (TRF0101) in the presence of ATP. The phosphorylated tyrosine residue was recognized by a LANCE Europium chelate labeled anti-phosphotyrosine (PY20) antibody from Perkin Elmer (AD0066). This brought the fluorophore and europium chelate in close proximity ([…]) that upon excitation at 320 nm by an Envision (PerkinElmer), energy can be transferred from the donor Europium chelate to the acceptor fluorophore. […] The strength of the signal was, therefore, directly proportional to the FAK/PYK2 activity.
(§3) To measure inhibitory activity of FAK/PYK2 inhibitors, compounds were first prepare as a 1 mM stock in 100% DMSO and 3-fold serial dilution was performed in a 96-well plate (Corning, 3897) to generate 12 different concentration of 100× stock. A 5 μl of 100× stock of each concentration was added to wells containing 95 μl of 1× reaction buffer (40 mM Tris, pH7.5, […], 1 mM DTT and 1 mM CHAPS) to generate 5× stock. Then 2 μl of 5× stock of each concentration was added to a 384 wells-OptiPlate (PerkinElmer, 6007299).
(§4) For PYK2, 5 μl of 2 nM PYK2 and 1.5 μl of 666 nM ULight-poly Glu, Ala, Tyr (1:1:1) peptide substrate, prepared in above reaction buffer, were added to each well. The reaction was initiated by adding 1.5 μl of 46.6 μM ATP. The reaction was allowed to proceed for 40 min before being quenched with 5 μl of 40 mM EDTA stop buffer prepared in 1×LANCE detection buffer (PerkinElmer, CR97-100).
(§5) Upon quenching of the reaction, 5 μl of 8 nM anti-phosphotyrosine antibody was added to each well and incubated for 60 minutes. The plate was measured using an Envision (PerkinElmer) based on the theory mentioned above.

[2] = biological target: FAK (Homo sapiens (Human), UniProt Q05397); assay: Biochemical assay for FAK activity (LANCE TR-FRET, ULight-poly Glu,Ala,Tyr substrate); settings: GST-tagged FAK, 120 min reaction
Experimental: as §1, §2, §3
as §4, with “For FAK, 4” for “For PYK2, 5”, “of 2.5” for “of 2”, “nM FAK, 1 ul of 8 μg/μl BSA” for “nM PYK2”, “of 33.3” for “of 46.6”, “for 120” for “for 40”
as §5

Chain of PYK2 (Q14289 whole entry): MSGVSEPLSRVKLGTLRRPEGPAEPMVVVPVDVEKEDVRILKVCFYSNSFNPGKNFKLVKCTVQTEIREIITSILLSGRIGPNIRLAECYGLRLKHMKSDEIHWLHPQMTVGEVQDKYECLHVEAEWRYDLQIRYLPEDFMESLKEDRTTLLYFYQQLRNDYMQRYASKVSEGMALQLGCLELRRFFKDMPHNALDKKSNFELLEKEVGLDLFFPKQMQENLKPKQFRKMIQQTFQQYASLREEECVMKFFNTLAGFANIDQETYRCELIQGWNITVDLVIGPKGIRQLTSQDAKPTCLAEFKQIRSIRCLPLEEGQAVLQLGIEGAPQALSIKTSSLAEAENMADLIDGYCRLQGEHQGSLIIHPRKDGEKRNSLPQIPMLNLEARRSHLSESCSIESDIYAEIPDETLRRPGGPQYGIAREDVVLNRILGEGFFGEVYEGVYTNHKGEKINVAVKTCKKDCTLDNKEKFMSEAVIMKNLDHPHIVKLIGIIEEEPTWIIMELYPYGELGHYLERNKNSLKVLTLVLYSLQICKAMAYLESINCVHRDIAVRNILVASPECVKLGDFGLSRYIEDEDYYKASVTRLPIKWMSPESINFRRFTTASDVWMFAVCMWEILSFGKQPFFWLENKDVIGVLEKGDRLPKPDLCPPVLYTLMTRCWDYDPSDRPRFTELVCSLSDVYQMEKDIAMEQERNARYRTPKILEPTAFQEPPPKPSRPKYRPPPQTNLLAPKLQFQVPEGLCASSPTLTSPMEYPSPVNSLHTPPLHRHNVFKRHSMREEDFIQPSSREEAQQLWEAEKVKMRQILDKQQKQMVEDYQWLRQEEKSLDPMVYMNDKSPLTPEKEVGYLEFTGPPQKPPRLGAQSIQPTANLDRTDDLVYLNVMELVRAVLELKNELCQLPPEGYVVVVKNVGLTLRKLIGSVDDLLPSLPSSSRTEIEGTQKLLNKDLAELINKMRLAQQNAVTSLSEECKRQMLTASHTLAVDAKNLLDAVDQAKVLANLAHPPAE
Chain of FAK (Q05397 whole entry): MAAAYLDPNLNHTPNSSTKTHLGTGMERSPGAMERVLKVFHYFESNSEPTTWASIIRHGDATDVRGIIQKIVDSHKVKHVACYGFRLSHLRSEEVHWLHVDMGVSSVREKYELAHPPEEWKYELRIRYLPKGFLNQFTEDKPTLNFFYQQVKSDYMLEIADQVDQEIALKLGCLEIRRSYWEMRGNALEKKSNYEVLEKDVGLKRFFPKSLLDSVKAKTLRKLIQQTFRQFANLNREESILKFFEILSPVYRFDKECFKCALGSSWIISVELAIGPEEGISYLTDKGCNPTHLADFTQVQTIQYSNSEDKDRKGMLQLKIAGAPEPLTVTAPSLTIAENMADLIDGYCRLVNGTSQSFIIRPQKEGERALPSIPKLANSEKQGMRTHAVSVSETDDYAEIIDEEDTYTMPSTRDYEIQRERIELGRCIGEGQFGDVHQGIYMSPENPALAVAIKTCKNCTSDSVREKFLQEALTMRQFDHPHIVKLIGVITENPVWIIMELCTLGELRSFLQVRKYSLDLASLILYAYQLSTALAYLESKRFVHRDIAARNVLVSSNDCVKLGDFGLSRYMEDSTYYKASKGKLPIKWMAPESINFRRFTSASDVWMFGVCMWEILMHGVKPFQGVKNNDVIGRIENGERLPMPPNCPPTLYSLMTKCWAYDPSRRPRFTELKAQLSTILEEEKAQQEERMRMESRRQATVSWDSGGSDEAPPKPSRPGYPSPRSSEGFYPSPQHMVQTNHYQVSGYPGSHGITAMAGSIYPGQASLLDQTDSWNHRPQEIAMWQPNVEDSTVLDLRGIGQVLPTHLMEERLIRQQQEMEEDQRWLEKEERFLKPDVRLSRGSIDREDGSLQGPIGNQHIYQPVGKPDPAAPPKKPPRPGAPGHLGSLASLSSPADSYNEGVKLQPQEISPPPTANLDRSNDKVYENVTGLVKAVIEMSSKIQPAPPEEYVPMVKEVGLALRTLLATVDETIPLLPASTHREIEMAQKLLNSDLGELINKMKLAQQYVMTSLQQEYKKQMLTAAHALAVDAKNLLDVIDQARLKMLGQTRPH

Row | IC50 [1] [nM] | IC50 [2] [nM] | Compound
1 | < 50 | < 50 | CNC(=O)c1ccccc1Nc1nc(Nc2ccc(N3CCOCC3)cc2OC)nc2c1C(C)CN2 (racemic) [Example 23, (±)-2-(2-(2-methoxy-4-morpholinophenylamino)-5-methyl-6,7-dihydro-5H-pyrrolo[2,3-d]pyrimidin-4-ylamino)-N-methylbenzamide]
2 | < 500 | < 200 | COc1cc(N2CCOCC2)ccc1Nc1nc2c(c(Nc3ccccc3C(=O)N3CCCC3)n1)C(C)CN2 (racemic) [Example 24, (±)-(2-(2-(2-methoxy-4-morpholinophenylamino)-5-methyl-6,7-dihydro-5H-pyrrolo[2,3-d]pyrimidin-4-ylamino)phenyl)(pyrrolidin-1-yl)methanone]
3 | < 20 | < 50 | CNS(=O)(=O)c1ccccc1Nc1nc(Nc2ccc(N3CCOCC3)cc2OC)nc2c1C(C)CN2 (racemic) [Example 25, (±)-2-(2-(2-methoxy-4-morpholinophenylamino)-5-methyl-6,7-dihydro-5H-pyrrolo[2,3-d]pyrimidin-4-ylamino)-N-methylbenzenesulfonamide]
4 | < 20 | < 20 | CCCNS(=O)(=O)c1ccccc1Nc1nc(Nc2ccc(N3CCOCC3)cc2OC)nc2c1C(C)CN2 (racemic) [Example 26, (±)-2-(2-(2-methoxy-4-morpholinophenylamino)-5-methyl-6,7-dihydro-5H-pyrrolo[2,3-d]pyrimidin-4-ylamino)-N-propylbenzenesulfonamide]
5 | < 20 | < 20 | COc1cc(N2CCOCC2)ccc1Nc1nc2c(c(Nc3ccccc3S(=O)(=O)NC3CCC3)n1)C(C)CN2 (racemic) [Example 27, (±)-N-cyclobutyl-2-(2-(2-methoxy-4-morpholinophenylamino)-5-methyl-6,7-dihydro-5H-pyrrolo[2,3-d]pyrimidin-4-ylamino)benzenesulfonamide]
6 | < 50 | < 300 | COc1cc(N2CCOCC2)ccc1Nc1nc2c(c(Nc3ccccc3S(=O)(=O)NC3CCCC3)n1)C(C)CN2 (racemic) [Example 28, (±)-N-cyclopentyl-2-(2-(2-methoxy-4-morpholinophenylamino)-5-methyl-6,7-dihydro-5H-pyrrolo[2,3-d]pyrimidin-4-ylamino)benzenesulfonamide]
7 | < 500 | < 50 | COc1cc(N2CCOCC2)ccc1Nc1nc2c(c(Nc3ccccc3S(=O)(=O)NC3CCCCC3)n1)C(C)CN2 (racemic) [Example 29, (±)-N-cyclohexyl-2-(2-(2-methoxy-4-morpholinophenylamino)-5-methyl-6,7-dihydro-5H-pyrrolo[2,3-d]pyrimidin-4-ylamino)benzenesulfonamide]
8 | < 200 | < 200 | COc1cc(N2CCOCC2)ccc1Nc1nc2c(c(Nc3ccccc3NC(C)=O)n1)C(C)CN2 (racemic) [Example 30, (±)-N-(2-(2-(2-methoxy-4-morpholinophenylamino)-5-methyl-6,7-dihydro-5H-pyrrolo[2,3-d]pyrimidin-4-ylamino)phenyl)acetamide]
9 | < 20 | < 30 | COc1cc(N2CCOCC2)ccc1Nc1nc2c(c(Nc3ccccc3N(C)S(C)(=O)=O)n1)C(C)CN2 (racemic) [Example 31, (±)-N-(2-(2-(2-methoxy-4-morpholinophenylamino)-5-methyl-6,7-dihydro-5H-pyrrolo[2,3-d]pyrimidin-4-ylamino)phenyl)-N-methylmethanesulfonamide]
10 | > 1000 | < 20 | COc1cc(N2CCOCC2)ccc1Nc1nc(NCc2ccccc2N(C)S(C)(=O)=O)c2c(n1)NCC2C (racemic) [Example 32, (±)-N-(2-((2-(2-methoxy-4-morpholinophenylamino)-5-methyl-6,7-dihydro-5H-pyrrolo[2,3-d]pyrimidin-4-ylamino)methyl)phenyl)-N-methylmethanesulfonamide]
11 | < 1000 | < 500 | COc1cc(N2CCOCC2)ccc1Nc1nc2c(c(Nc3cccc(C)n3)n1)C(C)CN2 (racemic) [Example 33, (±)-N^2-(2-methoxy-4-morpholinophenyl)-5-methyl-N^4-(6-methylpyridin-2-yl)-6,7-dihydro-5H-pyrrolo[2,3-d]pyrimidine-2,4-diamine]
12 | < 1000 | > 1000 | COc1cc(N2CCOCC2)ccc1Nc1nc2c(c(Nc3ccc(F)c(F)c3)n1)C(C)CN2 (racemic) [Example 34, (±)-N^4-(3,4-difluorophenyl)-N^2-(2-methoxy-4-morpholinophenyl)-5-methyl-6,7-dihydro-5H-pyrrolo[2,3-d]pyrimidine-2,4-diamine]
13 | < 100 | < 100 | CNC(=O)c1ccccc1Nc1nc(Nc2ccc(N3CCOCC3)cc2OC)nc2c1CCN2 [Example 1, 2-(2-(2-methoxy-4-morpholinophenylamino)-6,7-dihydro-5H-pyrrolo[2,3-d]pyrimidin-4-ylamino)-N-methylbenzamide]
14 | > 1000 | > 1000 | CNC(=O)c1ccc2c(c1Nc1nc(Nc3ccc(N4CCOCC4)cc3OC)nc3c1CCN3)OCO2 [Example 2, 4-(2-(2-methoxy-4-morpholinophenylamino)-6,7-dihydro-5H-pyrrolo[2,3-d]pyrimidin-4-ylamino)-N-methylbenzo[d][1,3]dioxole-5-carboxamide]
15 | > 1000 | > 1000 | COc1cc(N2CCOCC2)ccc1Nc1nc2c(c(Nc3ccccc3C(=O)N3CCCC3)n1)CCN2 [Example 3, (2-(2-(2-methoxy-4-morpholinophenylamino)-6,7-dihydro-5H-pyrrolo[2,3-d]pyrimidin-4-ylamino)phenyl)(pyrrolidin-1-yl)methanone]
16 | < 50 | < 20 | CNS(=O)(=O)c1ccccc1Nc1nc(Nc2ccc(N3CCOCC3)cc2OC)nc2c1CCN2 [Example 4, 2-(2-(2-methoxy-4-morpholinophenylamino)-6,7-dihydro-5H-pyrrolo[2,3-d]pyrimidin-4-ylamino)-N-methylbenzenesulfonamide]
17 | < 20 | < 20 | CCCNS(=O)(=O)c1ccccc1Nc1nc(Nc2ccc(N3CCOCC3)cc2OC)nc2c1CCN2 [Example 5, 2-(2-(2-methoxy-4-morpholinophenylamino)-6,7-dihydro-5H-pyrrolo[2,3-d]pyrimidin-4-ylamino)-N-propylbenzenesulfonamide]
18 | < 20 | < 20 | COc1cc(N2CCOCC2)ccc1Nc1nc2c(c(Nc3ccccc3S(=O)(=O)NC3CCC3)n1)CCN2 [Example 6, N-cyclobutyl-2-(2-(2-methoxy-4-morpholinophenylamino)-6,7-dihydro-5H-pyrrolo[2,3-d]pyrimidin-4-ylamino)benzenesulfonamide]
19 | < 100 | < 50 | COc1cc(N2CCOCC2)ccc1Nc1nc2c(c(Nc3ccccc3S(=O)(=O)NC3CCCC3)n1)CCN2 [Example 7, N-cyclopentyl-2-(2-(2-methoxy-4-morpholinophenylamino)-6,7-dihydro-5H-pyrrolo[2,3-d]pyrimidin-4-ylamino)benzenesulfonamide]
20 | < 500 | < 200 | COc1cc(N2CCOCC2)ccc1Nc1nc2c(c(Nc3ccccc3S(=O)(=O)NC3CCCCC3)n1)CCN2 [Example 8, N-cyclohexyl-2-(2-(2-methoxy-4-morpholinophenylamino)-6,7-dihydro-5H-pyrrolo[2,3-d]pyrimidin-4-ylamino)benzenesulfonamide]
21 | < 1000 | < 1000 | COc1cc(N2CCOCC2)ccc1Nc1nc2c(c(Nc3ccccc3NC(C)=O)n1)CCN2 [Example 9, N-(2-(2-(2-methoxy-4-morpholinophenylamino)-6,7-dihydro-5H-pyrrolo[2,3-d]pyrimidin-4-ylamino)phenyl)acetamide]
22 | < 50 | < 100 | COc1cc(N2CCOCC2)ccc1Nc1nc2c(c(Nc3ccccc3N(C)S(C)(=O)=O)n1)CCN2 [Example 10, N-(2-(2-(2-methoxy-4-morpholinophenylamino)-6,7-dihydro-5H-pyrrolo[2,3-d]pyrimidin-4-ylamino)phenyl)-N-methylmethanesulfonamide]
23 | > 2000 | < 100 | COc1cc(N2CCOCC2)ccc1Nc1nc2c(c(NCc3ccccc3N(C)S(C)(=O)=O)n1)CCN2 [Example 11, N-(2-((2-(2-methoxy-4-morpholinophenylamino)-6,7-dihydro-5H-pyrrolo[2,3-d]pyrimidin-4-ylamino)methyl)phenyl)-N-methylmethanesulfonamide]
